According to patent US20260102499A1, “COMPOSITIONS WITH REDUCED N[…]” (INVENTIA HEALTHCARE LIMITED, priority 2022, published 2026):
Where “and” joins values, the source holds several entries; their conditions need not be identical. Identical values can stand only once.

experiment: Acceptable intake / acceptable level of nitrosamine impurities (Health Canada); conditions: based on a maximum daily dose of 2 mg for varenicline
Source text: International regulators such as United States Food and Drug Administration (USFDA), European Medicine Agency (EMA), and Health Canada have published recommendations with respect to ‘acceptable intake’ of nitrosamine impurities. ‘Acceptable intake’ (per day) of nitrosamine impurities varies with the impurity structure, molecular weight, and its toxicity potential. Table 1 illustrates the per day ‘acceptable intake’ of some nitrosamine impurities, as published by Health Canada.
‘Acceptable intake’ of a nitrosamine impurity, when applied to the maximum daily dose of a drug, provides ‘acceptable levels’ of the said nitrosamine impurity in pharmaceutical compositions containing the said drug. ‘Acceptable levels’ of a nitrosamine impurity are expressed in parts per million (ppm) or parts per billion (ppb), of the drug (by weight). For example, for varenicline (which contains amine), the ‘acceptable intake’ of the N-nitroso-varenicline (NNV) (nitrosamine impurity of the NDSRI type) is 37 ng/day, and the ‘acceptable level’ of NNV is 18.5 ppm based on a maximum daily dose of 2 mg for varenicline.

SMILES	acceptable level of NNV [ppm]
O=NN1CC2CC(C1)c1cc3nccnc3cc12 [N-nitroso-varenicline (NNV), N-nitroso-varenicline]	18.5

experiment: not given; conditions: per day, as published by Health Canada; cited from earlier work

SMILES	Acceptable Intake (AI) Levels
O=NN1CCCCC1 [N-nitroso-piperidine]	1300.0 ng/day
CCCCN(CCCC)N=O [N-nitroso-dibutylamine (NDBA), N-nitroso-dibutylamine]	26.5 ng/day
CN(CCCC(=O)O)N=O [N-nitroso-4-(methylamino)butyric acid]	96.0 ng/day
CCN(N=O)C(C)C [N-nitroso-ethylisopropylamine (NEIPA), N-nitroso-ethylisopropylamine]	26.5 ng/day
CCCN(CCC)N=O [N-nitroso-dipropylamine (NDPA), N-nitroso-dipropylamine]	26.5 ng/day
O=NN1CC=CCC1 [N-nitroso-1,2,3,6-tetrahydropyridine]	37.0 ng/day
CN(C)N=O [N-nitroso-dimethylamine (NDMA), N-nitroso-dimethylamine]	96.0 ng/day
CN(CCC=C1c2ccccc2CCc2ccccc21)N=O [N-nitroso-nortriptyline (NNORT), N-nitroso-nortriptyline]	8.0 ng/day
C#CCN(N=O)[C@@H]1CCc2ccccc21 [N-nitroso-rasagiline]	18.0 ng/day
O=NN1CC2CC(C1)c1cc3nccnc3cc12 [N-nitroso-varenicline (NNV), N-nitroso-varenicline]	37 ng/day and 37.0 ng/day
CN1CCN(N=O)CC1 [1-methyl-4-nitrosopiperazine (MNP), 1-methyl-4-nitrosopiperazine]	96.0 ng/day
CN(CC[C@H](Oc1cccc2ccccc12)c1cccs1)N=O [N-nitroso-duloxetine (NDLX), N-nitroso-duloxetine]	100.0 ng/day
COC(=O)C(c1ccccc1)C1CCCCN1N=O (stereo not shown) [N-nitroso-methylphenidate]	1300.0 ng/day
CN(CCc1ccccc1)N=O [N-methyl-N-nitroso-phenethylamine]	8.0 ng/day
CCN(CC)N=O [N-nitroso-diethylamine (NDEA), N-nitroso-diethylamine]	26.5 ng/day
O=NN1CCOCC1 [N-nitrosomorpholine (NMOR), N-nitrosomorpholine]	127.0 ng/day
CC(C)N(N=O)C(C)C [N-nitroso-diisopropylamine (NDIPA), N-nitroso-diisopropylamine]	26.5 ng/day
O=NN1CCn2c(nnc2C(F)(F)F)C1 [7-Nitroso-3-(trifluoromethyl)-5,6,7,8-tetrahydro[1,2,4]triazolo-[4,3-a]pyrazine]	37.0 ng/day
